The values that follow come from patent US6849650B2, “Heterocyclic compounds, pharmaceutical compositions comprising same, and methods for inhibiting β-amyloid peptide release and/or its synthesis by use of such compounds” (Athena Neurosciences, Inc., priority 1998, dated 2005).

As usually defined, the melting point is the temperature, or range, at which the solid turns liquid. On to `COC(=O)C1(Cc2ccccc2)CNC(C(C)NC(=O)Cc2cc(F)cc(F)c2)=N1` (stereo not shown) [Example 5, 2-[1-(3,5-difluorophenylacetamido)ethyl]-4-methoxycarbonyl-4-phenylmethyl-2-imidazoline], for which the melting point was in the range of 158 to 160 °C.
